Here are results for three compounds from patent publication US4304853A, “Method of determination for proteases and antiproteases” (priority 1979, dated 1981).

One test concerns trypsin. The experiment in a line: Amperometric determination of substrate hydrolysis by trypsin (oxidation current of liberated pADA). In kind it is biochemical. How it is done:
(§1) (a) A potentiostat, which is intended to maintain a constant potential difference between the measurement electrode and the reference electrode. A saw-tooth function generator, which generates a potential which varies between -0.1 and +0.4 V at a rate of 0.2 V/second. A graphic recorder with a good dynamic performance. A polytetrafluoroethylene cell which has a capacity of 5 ml and can hold three electrodes.
(b) Measurement electrode: This consists of a platinum plate which is surrounded by a cylinder of polytetrafluoroethylene (surface area 0.0314 cm^2).
(§2) (e) Solutions: The stock solutions of the enzyme (solution E) and of the substrate (solution S) are freshly prepared. The test solution, to which a given amount of E is added at the time t=0 of the kinetics, is termed A. The buffer, which has a pH of 8.15, is made up of 0.025 M Veronal^(R) and NaCl with an ionic strength of F=0.15.
(§3) (f) Example of an electrode made of carbon paste: 15 g of pure carbon powder are mixed with 9 ml of paraffin oil, for example that sold commercially under the trade name Nujol^(R). An electrode with a surface area of 0.16 cm^2 and a thickness of 3 mm can be shaped from the homogeneously mixed paste.
(§4) The measurement electrode is preconditioned in solution A without the enzyme, in order to impart to it a reproducible and precisely defined surface state before each cycle.
(§5) The preconditioning is achieved by applying a potential which has a saw-tooth profile and changes as a function of time, the potential varying between -0.1 and +b 0.4 V and changing at a rate of 0.2 V/second.
(§6) The electrode can then be used for the kinetic determinations, for which purpose the same saw-tooth potential as for the conditioning is applied every 60 seconds.
After deducting the base current at the particular potential, the current levels recorded at the maximum value of any one wave i=f(U) are proportional to the concentration of the electroactive species liberated during the hydrolysis. […]
The enzyme solution is added at the end of the potentiodynamic cycle which serves to record the base current (the base current has been shifted downwards; it is represented by the broken line). The concentrations corresponding to the current maxima can be read off from the calibration curve (FIG. 3). The conversion is determined as a function of time (maximum 30 minutes). […]
The reciprocal value of the rate (1/V) has been plotted as the ordinate and the reciprocal value of the concentration of the substrate (1/S) has been plotted as the abscissa. The reciprocal value of the rate 1/V was expressed as follows: either as (μA/minute--10 μg of enzyme)^-1 or as (μ mol×10^3 of pADA/minute--10 μg of enzyme). The points o represent an average value of 10 measured values for the rate and the points X represent a graphical average value. […]

Another test relates to thrombin. Nature of the test: Amperometric determination of substrate hydrolysis by thrombin (oxidation current of liberated amine). It is filed as biochemical. The method, then: as §1, §2, §3, §4, §5, §6
After deducting the base current at the particular potential, the current levels recorded at the maximum value of any one wave i=f(U) are proportional to the concentration of the electroactive species liberated during the hydrolysis. In the case of short hydrolysis times, a plot of the current levels against time is linear. The relationship between the enzyme concentration E (in μg/ml) and the rate of hydrolysis at time 0 (represented by the ratio (di/dt)o in μA/minute, that is to say by the gradient of the curve i=f (t) at the origin) for an electrode with a surface area of 1 cm^2 is given by the following formula: […]
The procedure is similar to that for trypsin and is also suitable for the determination of further enzymes, also with the aid of other substrates.
These constants (summarized in Table II below) have been obtained with the aid of the electrode prepared in accordance with Example I f).

Setting [1] is: carbon paste electrode, buffer a: Tris (0.025 M), NaCl (0.12 M), glycine (0.05 M), DMSO 4.76%, 20° C., pH 8.3.
[2] abbreviates: carbon paste electrode, buffer a: Tris (0.025 M), NaCl (0.12 M), glycine (0.05 M), DMSO 4.76%, 20° C., pH 8.3, read-out: KM: Michaelis constant.

Counter-ions that a name gives are not always drawn. Like-named read-outs stand apart in the source and are kept apart here.

A word on the Km: it is the substrate concentration at which the rate is half of its maximum. Consider `N=C(N)NCCCC(NC(=O)c1ccccc1)C(=O)Nc1ccc(Nc2ccccc2)cc1` (racemic) [D,L-BAPADA, benzoyl-D,L-arginine-p-aminodiphenyl-amide, HCl], for which, in the test with trypsin (carbon paste electrode, buffer b: Veronal (0.025 M), NaCl (0.12 M), DMSO 6.35%, 30° C., pH 8.4), the “VM: maximum rate” value came to 0.00096 μmole/minute I.U. For the same compound, the Km in the test with trypsin (carbon paste electrode, buffer b: Veronal (0.025 M), NaCl (0.12 M), DMSO 6.35%, 30° C., pH 8.4, read-out: KM: Michaelis constant) is 800 µM; with trypsin (hydrolysis with trypsin 10 μg/ml, 30° C., pH 8.15 (TRIS), DMSO 6.35%, LINEWEAVER-BURK diagram FIG. 7, read-out: MICHAELIS-MENTEN constant Km), 800 µM. The “Standardization: current after hydrolysis for one minute” value with trypsin (hydrolysis of the substrate with 1 mM of trypsin for one minute, per cm^2 of electrode surface area, Veronal buffer pH 8.15) stood at 0.295 μA/cm^2.

For `COc1cc(NC(=O)[C@H](CCCNC(=N)N)NC(=O)[C@@H]2CCCCN2C(=O)[C@H](N)Cc2ccccc2)cc2ccccc12` [H--D--Phe--Pip--Arg--4--MBNA], the “VM: maximum rate” value in the test on thrombin (setting [1]) stood at 0.020 μmole/minute I.U. For the same compound, the Km in the test with thrombin (setting [2]) was 37 µM.

Regarding `N=C(N)NCCC[C@H](NC(=O)[C@@H]1CCCCN1C(=O)[C@H](N)Cc1ccccc1)C(=O)Nc1ccc(Nc2ccccc2)cc1` [HDL, H-D-phenylalanyl-L-pipecolyl-L-arginyl-p-amino-diphenylamide dihydrochloride], the “Standardization: current after hydrolysis for one minute” value in the test with thrombin (0.1 mM of substrate with 0.01 I.U. of thrombin for one minute, Veronal buffer) stood at 0.217 μA/cm^2. Further, in the test with thrombin (setting [1]), the “VM: maximum rate” value was 0.10 μmole/minute I.U. The Km in the test with thrombin (setting [2]) stood at 10 µM; in the test with thrombin (hydrolysis with thrombin, procedure similar to that for trypsin, Veronal buffer, read-out: Km), 10 µM. Moreover, the Vm in the test with thrombin (hydrolysis with thrombin, procedure similar to that for trypsin, Veronal buffer) is listed as 1.1×10^-7 moles/minute×I.U.
